In publication PMC12040169 (PLOS Biology, 2025) one finds viability data, which are given here for 77 molecules.

This data set is described as follows: in vitro. The note with it: human, hela cells, % viability.

In the case of `Cc1nc(-c2ccc(CCNC(=O)c3cc(O)nc4ccccc34)s2)cs1` [CBK297720], the viability at 28.5 h, 10 µM is 94.2%.
The value for `COc1cc(Nc2cc(C)nc3ncnn23)ccc1N1CCCC1=O` [CBK297725] was 102%.
The figure for `O=C(O)c1cccc(-c2nc(-c3ccc(S(=O)(=O)N4CCOCC4)cc3)cs2)c1` [CBK297730] is 85.8%.
The figure for `O=C(O)c1csc(S(=O)(=O)Nc2ccc(Br)cc2Cl)c1` [CBK297731] is 101%.
Regarding `Cn1ncc2c(SCc3cc4c(cc3Br)OCCO4)ncnc21` [CBK297732], the viability at 28.5 h, 10 µM is 104%.
With `COc1ccc(CC(=O)N2CCN(C(C)c3nc4ccccc4s3)CC2)cc1F` (centres unmarked) [CBK297733], the viability at 28.5 h, 10 µM was 95.9%.
The figure for `CCN(c1ccc(NC(=O)Cn2nc(C(=O)O)c3ccccc3c2=O)cc1)C(C)C` [CBK297734] is 94.5%; for `CN(C)C(=O)CCc1nc(-c2ccccn2)no1` [CBK297735] it is 88.3%; for `NC(=O)c1ccc(C(=O)OCc2ccc(-c3ccccc3)cc2)cc1` [CBK297736] it is 95.7%.
The figure for `Cc1cc(C(=O)Nc2nncs2)c2ccc(F)cc2n1` [CBK297738] is 85.3%; for `O=C(NC1CCN(c2ncccn2)CC1)c1cccnc1O` [CBK297739] it is 99.7%; for `CCCc1n[nH]c(=S)n1CC(=O)Nc1cc(NC(=O)C2CC2)ccc1C` [CBK297740] it is 106%.
Take `CCCc1n[nH]c(=S)n1CC(=O)Nc1cccc(-n2ncc(C(=O)OCC)c2C)c1` [CBK297746]: the viability at 28.5 h, 10 µM was 90.2%.
The value for `CC(=O)N1CCC(NC(=O)c2cccc(C(N)=O)c2)CC1` [CBK297747] was 115%; that for `Cc1ccc(C(=O)NCc2cccc(COCc3ccco3)c2)cc1F` [CBK297750] was 83.5%.
The figure for `Cc1ccc(C(=O)NCC(O)c2ccc(F)cc2F)cn1` (centres unmarked) [CBK297751] is 89.8%.
In the case of `Cc1ccccc1OCC(=O)NCC1(N2CCCCC2)CCCCC1` [CBK297752], the viability at 28.5 h, 10 µM worked out at 89.5%.
The figure for `O=C(Nc1ccc(N2CCCCC2)c2ccncc12)c1cccc(-n2cnnn2)c1` [CBK297754] is 85.8%; for `COc1cc(CNC(=O)c2cccnc2Sc2ccc(Cl)cc2)ccn1` [CBK297755] it is 108%.
With `CCn1c(SCc2cc(C)no2)nnc1C1CC1` [CBK297758], the viability at 28.5 h, 10 µM was determined as 102%.
The value for `CC1CC(C)CN(C(=O)c2ccccc2NC(=O)C2CC(=O)Nc3ccccc32)C1` (centres unmarked) [CBK297760] was 81.8%; that for `C=CCn1c(-c2sc(NC(=O)c3ccc(CNC(=O)NC(C)C)cc3)nc2C)n[nH]c1=S` [CBK297764] was 111%; that for `O=C1CC(C(=O)Nc2ccccn2)c2ccccc2N1` (centres unmarked) [CBK297771] was 101%.
The figure for `O=C(Nc1ccnn1Cc1ccccc1)C1CC(c2cccc(F)c2)=NO1` (centres unmarked) [CBK297772] is 112%; for `CN(C)c1ncccc1CNC(=O)c1ccccn1` [CBK297774] it is 81.5%.
The figure for `Cc1ccc(NS(=O)(=O)c2cccc(C(=O)NS(=O)(=O)c3ccc(F)cc3F)c2)cc1` [CBK297776] is 70.5%; for `CC(=O)Nc1ccc(C(=O)NC(c2cccs2)C2CCCC2)cc1` (centres unmarked) [CBK297777] it is 84.1%.
Consider `CN(C(=O)c1cc(O)nc2ccccc12)c1nccs1` [CBK297778], for which the viability at 28.5 h, 10 µM was determined as 105%.
On to `CCC(CNC(=O)c1cc(-c2ccco2)nc2c(C(N)=O)ncn12)c1ccccc1` (centres unmarked) [CBK297779], for which the viability at 28.5 h, 10 µM worked out at 94.2%.
The value for `COc1ccc(C2CC(c3ccc(NS(C)(=O)=O)cc3)=NN2C(=O)CCCC(=O)O)cc1` (centres unmarked) [CBK297780] was 116%; that for `COc1ccc(OC)c(C2CC(c3ccc(NS(C)(=O)=O)cc3)=NN2C(=O)CCC(=O)O)c1` (centres unmarked) [CBK297781] was 107%; that for `CCN(CC)S(=O)(=O)c1ccc(C)c(NS(=O)(=O)c2cc(C(=O)O)n(C)c2)c1` [CBK297782] was 99.5%.
The value for `C=CCn1c(Cc2csc(NC(=O)c3cnc(SC)n3-c3ccccc3)n2)n[nH]c1=S` [CBK297786] was 84.3%; that for `CC(=O)Nc1ccc(CNc2ccc(C#N)cn2)cc1` [CBK297790] was 97.7%.
`CN(c1ccccc1)S(=O)(=O)c1cccc(NC(=O)Cc2csc(-c3ccco3)n2)c1` [CBK297792]: the viability at 28.5 h, 10 µM came out at 75.9%.
The figure for `O=C(c1ccc(-n2cccn2)nc1)N1CCN(c2ccccc2O)CC1` [CBK297794] is 83.8%.
The figure for `CC1CC1C(=O)NCC(=O)Nc1nc2ccc(OC(F)(F)F)cc2s1` (centres unmarked) [CBK297874] is 98.3%.
The figure for `CC(C)C(NC(=O)CSc1n[nH]c(=O)n1Cc1ccccc1)c1ccc2c(c1)OCCCO2` (centres unmarked) [CBK297875] is 106%.
Take `CN(Cc1ccc2c(c1)OCCO2)C(=O)CSc1n[nH]c(=O)n1Cc1ccccc1` [CBK297876]: the viability at 28.5 h, 10 µM was determined as 82.1%.
As for `COc1ccc(-c2nnc(SC(C)C(=O)Nc3cc(C)no3)n2CC2CCCO2)cc1` (centres unmarked) [CBK297879], the viability at 28.5 h, 10 µM came out at 84.8%.
Take `CCn1c(-c2ccc3c(c2)OCCO3)cnc1SCC(=O)c1cc(C)[nH]c1C` [CBK297880]: the viability at 28.5 h, 10 µM worked out at 89.4%.
The value for `COc1cc(C=Cc2nc3cc(Cl)ccc3s2)ccc1OCC(=O)O` [CBK297886] was 96.4%.
As to `Cc1ccc(-c2n[nH]c(=S)n2CC(=O)N2CCC(C(=O)Nc3ccc4c(c3)OCO4)CC2)cc1` [CBK297887], the viability at 28.5 h, 10 µM came out at 82%.
The figure for `C=CCn1c(Cc2csc(NC(=O)CCc3nc4ccccc4c(=O)[nH]3)n2)n[nH]c1=S` [CBK297888] is 88.8%; for `Cc1ccc(C(=O)N2CC=C(c3c[nH]c4ncccc34)CC2)cn1` [CBK297889] it is 103%; for `C=CCn1c(Cc2csc(NC(=O)c3cccc(NC(C)=O)c3)n2)n[nH]c1=S` [CBK297891] it is 83.4%.
The figure for `CC1CCN(Cc2csc(NC(=O)CCn3c(-c4cccs4)n[nH]c3=S)n2)CC1` [CBK297892] is 92.2%; for `CCOc1ccc(-c2n[nH]c(=S)n2CCC(=O)N2CCCN(Cc3ccc(C#N)cc3)CC2)cc1` [CBK297893] it is 95.8%; for `Cc1cccc(NC(=O)CSCc2ccc(Cl)s2)n1` [CBK297895] it is 90.4%.
On to `COc1ccc(C(NC(=O)c2cc3ccccc3[nH]2)C2CC2)cc1` (centres unmarked) [CBK297896], for which the viability at 28.5 h, 10 µM came out at 97.9%.
The value for `O=C(OCc1nnsc1Cl)c1ccc(C(=O)c2ccccc2)cc1` [CBK297897] was 109%; that for `CC(C)C(NC(=O)CN1CSCC1=O)c1ccc(C(C)(C)C)cc1` (centres unmarked) [CBK297899] was 88.6%.
With `COc1ccc(C(CNC(=O)Cn2c(-c3cccc(C)c3)n[nH]c2=S)N2CCOCC2)cc1OC` (centres unmarked) [CBK297900], the viability at 28.5 h, 10 µM was found to be 88.2%.
The value for `C=CCn1c(Cc2csc(NC(=O)c3cc(S(=O)(=O)NC)ccc3C)n2)n[nH]c1=S` [CBK297903] was 105%; that for `Cc1ccc(-c2n[nH]c(=S)n2CCC(=O)N(C)Cc2ccc(N3CCCCC3)cc2)cc1` [CBK297904] was 106%.
The value for `C=CCn1c(-c2sc(NC(=O)CNC(=O)C(C)(C)C)nc2C)n[nH]c1=S` [CBK297907] was 91.2%; that for `Cc1[nH]c2ccc(C(=O)N(Cc3ccccc3)C3CC3)cc2c1C` [CBK297913] was 89.1%; that for `Cc1sc2nc(C(C)Nc3ccc4[nH]c(=O)[nH]c4c3)[nH]c(=O)c2c1C` (centres unmarked) [CBK297915] was 80.6%.
The figure for `Cc1cc(C(=O)C(C)Sc2nnc(N)s2)c(C)n1-c1ccccc1` (centres unmarked) [CBK297916] is 87%; for `COc1ccc(-c2n[nH]c(=S)n2CCC(=O)NCc2ccc(CN3CCCCC3)cc2)cc1` [CBK297918] it is 94.5%.
For `O=C(NCc1ccccc1)C1CCN(C(=O)Cc2c(F)cccc2Cl)CC1` [CBK297919], the viability at 28.5 h, 10 µM was 96.6%.
The value for `CC(OC(=O)Cc1ccccc1[N+](=O)[O-])c1nnnn1-c1ccccc1` (centres unmarked) [CBK297920] was 97.6%.
The value for `Cc1ccc(C2=NN(C(=O)CNc3cc(F)cc(F)c3)C(c3ccco3)C2)cc1` (centres unmarked) [CBK297922] was 94.2%.
The figure for `Cc1ccc2nc(COC(=O)c3ccc(Cn4nnc5ccccc54)cc3)cn2c1` [CBK297923] is 96.6%; for `O=C(Cc1c[nH]c2ccccc12)N1CCCC1c1ccc(F)cc1` (centres unmarked) [CBK297927] it is 105%.
With `CC(C)Cc1ccc(S(=O)(=O)Nc2ccc(C(=O)O)cc2)cc1` [CBK297930], the viability at 28.5 h, 10 µM worked out at 98.4%.
The figure for `CC1CN(S(=O)(=O)c2ccc(NC(=O)C3CC(=O)Nc4cc(F)ccc43)cc2)CC(C)O1` (centres unmarked) [CBK297933] is 91.4%; for `Cc1cc(C(=O)CSc2nncs2)c(C)n1C(C)c1ccccc1` (centres unmarked) [CBK297934] it is 86.8%.
The figure for `O=C(Cc1csc(-c2ccsc2)n1)Nc1nc2c(s1)CCC2` [CBK297935] is 96.8%; for `CC(NC(=O)c1cc2ccccc2c(=O)[nH]1)c1ccc(-c2ccccc2)cc1` (centres unmarked) [CBK297936] it is 86.4%; for `CCCNC(=O)C(C)NC(=O)C1=Cc2ccccc2OC1` (centres unmarked) [CBK297937] it is 95.2%.
The figure for `Cc1[nH]c(=O)[nH]c(=O)c1CCC(=O)OCc1nccn1Cc1ccccc1` [CBK297939] is 82.1%.
Regarding `CC(C)c1ccc(NS(=O)(=O)c2ccc(F)c(C(=O)O)c2)cc1` [CBK297940], the viability at 28.5 h, 10 µM stood at 104%.
The value for `COc1ccc(C)cc1N(C(=O)c1ccccn1)c1nc2ccccc2s1` [CBK297944] was 97.7%.
The figure for `Cc1nnnn1C(Cc1cccc(F)c1)C(=O)N1CC(C)CC(C)C1` (centres unmarked) [CBK298262] is 96.3%; for `CN(Cc1cc(Br)cs1)C(=O)CCc1c[nH]c2ccccc12` [CBK298268] it is 108%; for `COc1cccc(C(CNS(=O)(=O)c2ccc3c(c2)OCCCO3)N(C)C)c1` (centres unmarked) [CBK298270] it is 98.2%.
